# According to patent publication US20030180797A1, “Identification of ligands for a receptor family and related methods” (priority 2002, published 2003):
# Several values for one entry are separate records, joined by “and”; a condition that tells them apart may be missing. Equal values may be shown once.
# Columns and labels:
# Format in all cases: biochemical
# human DHFR = biological target: T1, human DHFR (Homo sapiens, UniProt P00374); test: Dihydrofolate reductase (DHFR) kinetic spectrophotometric assay; settings: Cibacron Blue at 3 μM; read-out: inhibition of DHFR, positive control
# T1 sequence (P00374 1-187): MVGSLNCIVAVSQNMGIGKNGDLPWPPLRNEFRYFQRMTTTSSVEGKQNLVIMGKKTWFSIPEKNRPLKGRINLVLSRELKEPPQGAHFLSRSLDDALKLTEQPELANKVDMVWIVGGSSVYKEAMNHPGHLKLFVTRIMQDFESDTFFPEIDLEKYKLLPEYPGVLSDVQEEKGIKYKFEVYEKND
# Experimental: H2 folate was dissolved in DMSO to about 10 mM and then diluted with water to a concentration of 0.1 mM.
# Inhibitor solutions were prepared in DMSO so that, when diluted, the inhibitor concentration was 100 μM and the final DMSO concentration was adjusted to 5%. […] The reaction was then initiated with 8 μl of human DHFR (0.047 mg/ml; 1:85 dilution of 4 mg/ml stock solution). After the enzyme was added, the reaction was run for 10 minutes.
# (§1) When bi-ligands were screened, the substrate concentration and NADPH or NADH concentrations were kept near their Km values. When assaying common ligands (CLMs), the substrate concentration was increased to at least 10 times the Km. If the compounds assayed were specificity ligands (substrate mimics), the NAPDH or NADH concentration was increased.
# E. coli DHPR enzyme [1] = biological target: T2, E. coli DHPR enzyme (Escherichia coli, UniProt P04036); test: Dihydrodipicolinate reductase (DHPR) kinetic spectrophotometric assay, NADPH oxidation at 340 nm; settings: for IC50: bi-ligands and pyridine dicarboxylate derivatives, Example VII, FIG. 8
# T2 sequence (P04036 whole entry): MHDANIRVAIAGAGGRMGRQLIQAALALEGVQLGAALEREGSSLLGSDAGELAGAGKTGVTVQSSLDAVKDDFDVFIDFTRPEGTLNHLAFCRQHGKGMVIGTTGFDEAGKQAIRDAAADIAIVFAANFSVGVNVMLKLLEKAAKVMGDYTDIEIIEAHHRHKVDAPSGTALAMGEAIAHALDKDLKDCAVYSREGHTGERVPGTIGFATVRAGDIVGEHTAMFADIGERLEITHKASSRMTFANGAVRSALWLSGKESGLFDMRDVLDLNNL
# Experimental: DHPR was diluted in 10 mM HEPES, pH 7.4. Dihydrodipicolinate synthase (DHPS) was not diluted and was stored in eppendorf tubes.
# The L-aspartate semialdehyde (L-ASA) solution was prepared in the following manner. A 180 μM stock solution of ASA was prepared. 100 μl of the ASA stock solution was mixed with 150 μl of concentrated NaHCO3 and 375 μl of H2O. […] The L-ASA stock solution was kept at a temperature of −20° C. After dilution, the pH of the 28.8 mM solution was checked and maintained between pH 1 to 2.
# The solution for background detection was a 945 μl solution containing 0.1 M HEPES, pH 7.8, 1 mM pyruvate, 6 μM NADPH, 40 μM L-ASA, and 7 μl of 1 mg/ml DHPS at 25° C. in the volumes indicated above. The sample solution was then mixed and incubated for 10 minutes. Inhibitor solutions (500 nM or 100 μM final concentration) and enough dimethylsulfoxide (DMSO) to provide a final DMSO concentration of 5% were added. The solution was mixed and incubated for an additional 6 minutes.
# In DHPR samples, the DHPR stock solution was diluted and 5 μl of diluted E. coli DHPR enzyme (1:1000 dilution of 1 mg/ml stock) were added. The sample was mixed for 20 seconds, and then the reaction was run for […]. […] Reading of the samples was continued until 300 seconds.
# For assaying bi-ligands, the substrate concentration and the NADPH or NADH concentration were kept near their Km values. […] If substrate mimics (specificity ligands) were tested, the NADPH or NADH concentration was increased.
# LDH from Rabbit Muscle = biological target: T3, LDH from Rabbit Muscle (Oryctolagus cuniculus, UniProt P13491); test: Lactate dehydrogenase (LDH) kinetic spectrophotometric assay, NADH oxidation; settings: Cibacron Blue at 10.3 mM; read-out: inhibition of LDH, positive control
# T3 construct: 10 μl of diluted LDH from Rabbit Muscle; from tissue; host or cells: rabbit muscle
# Experimental: [table] […] These solutions were incubated for 6 minutes at 25° C. in 990 μl of a solution containing 0.1 M HEPES, pH 7.4, […], and 2.5 mM of pyruvate. The reaction was then initiated with 10 μl of diluted LDH from Rabbit Muscle (0.5 μg/ml; 1:2000 dilution of 1.0 mg/ml stock solution). […] Reading of the samples was continued until 300 seconds. […] When bi-ligands were screened, the substrate concentration and NADPH or NADH concentrations were kept near their Km values. […] If the compounds assayed were specificity ligands (substrate mimics), the NAPDH or NADH concentration was increased.
# [2] = biological target: DOXP reductoisomerase from E. coli (Escherichia coli, UniProt P45568); test: 1-Deoxy-D-xylulose-5-phosphate reductoisomerase (DOXPR) kinetic spectrophotometric assay, NADPH oxidation; settings: Cibacron Blue at 10.32 μM; read-out: inhibition of DOXPR, positive control
# DOXP reductoisomerase from E. coli, sequence (P45568 whole entry): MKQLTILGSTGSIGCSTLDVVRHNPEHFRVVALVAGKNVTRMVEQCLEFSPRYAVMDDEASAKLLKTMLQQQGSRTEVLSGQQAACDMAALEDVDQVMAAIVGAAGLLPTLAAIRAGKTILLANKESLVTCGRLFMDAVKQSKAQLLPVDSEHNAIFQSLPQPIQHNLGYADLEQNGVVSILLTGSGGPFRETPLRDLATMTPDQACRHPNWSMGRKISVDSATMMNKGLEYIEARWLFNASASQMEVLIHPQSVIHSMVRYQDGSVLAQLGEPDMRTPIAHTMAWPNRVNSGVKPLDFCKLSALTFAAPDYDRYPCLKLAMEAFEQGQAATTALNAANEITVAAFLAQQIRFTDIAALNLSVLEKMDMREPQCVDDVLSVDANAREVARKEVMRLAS
# Experimental: DOXPR was diluted in 10 mM HEPES, pH 7.4.
# Solutions of the inhibitors in DMSO were prepared to provide a final DMSO concentration of 5%. […] 1.15 mM DOXP, and 8 μM NADPH. The reaction was then initiated with 10 μl of DOXP reductoisomerase (also known as DOXP reductase) from E. coli (10 μg/ml; 1:200 diilution of 2 mg/ml stock solution).
# as §1
# ADH from Bakers Yeast = biological target: T4, ADH from Bakers Yeast (Saccharomyces cerevisiae, UniProt P00330); test: Alcohol dehydrogenase (ADH) kinetic spectrophotometric assay, NAD+ reduction; settings: Cibacron Blue at 15.5 μM; read-out: inhibition of ADH, positive control
# T4 sequence (P00330 1-348): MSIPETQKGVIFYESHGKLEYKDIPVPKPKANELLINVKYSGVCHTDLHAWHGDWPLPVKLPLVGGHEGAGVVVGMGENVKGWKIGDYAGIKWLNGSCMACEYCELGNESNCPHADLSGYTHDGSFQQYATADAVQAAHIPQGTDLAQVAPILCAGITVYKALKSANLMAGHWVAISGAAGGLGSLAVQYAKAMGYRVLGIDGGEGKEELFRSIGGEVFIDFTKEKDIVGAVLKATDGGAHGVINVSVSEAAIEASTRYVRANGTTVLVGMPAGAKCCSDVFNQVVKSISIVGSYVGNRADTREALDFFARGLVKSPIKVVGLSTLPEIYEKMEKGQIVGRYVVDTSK
# Experimental: Inhibitor solutions were prepared in DMSO so that, when diluted, the inhibitor concentration was 100 μM and the final DMSO concentration was adjusted to 5%. […] The reaction was then initiated with 10 μl of ADH from Bakers Yeast (Saccharomyces cerevisiae) (3.3 μg/ml; 1:400 dilution of 1.0 mg/ml). […] Reading of the samples was continued until 300 seconds.
# Where only a simple read was desired, as in the case of NAD+ concentration determination, 13 μl (10 M stock) of ethanol was used to drive the reaction, and 10 μl of pure enzyme (1 mg/ml) was used. NAD+ was soluble at 2 mM. In this situation, the procedure was as follows. All of the ingredients except for the enzyme were mixed together. The solution was mixed well and the absorbance at 340 nm read. The enzyme was added and read again at OD 340 after the absorbance stopped changing, generally 10 to 15 minutes after the enzyme was added.
# E. coli DHPR enzyme [3] = biological target: T2, E. coli DHPR enzyme; test: Dihydrodipicolinate reductase (DHPR) kinetic spectrophotometric assay, NADPH oxidation at 340 nm; settings: read-out: inhibition of DHPR activity
SMILES,IC50 (E. coli DHPR enzyme [1]),also measured
Nc1c(S(=O)(=O)O)cc(Nc2ccc(Nc3nc(Cl)nc(Nc4ccccc4S(=O)(=O)O)n3)c(S(=O)(=O)O)c2)c2c1C(=O)c1ccccc1C2=O [Cibacron Blue],–,"inhibition at 3 µM (human DHFR): 50 to 70%; inhibition at 2580 µM (E. coli DHPR enzyme [1]; read-out: inhibition of DHPR, positive control): 70 to 80%; inhibition at 10300 µM (LDH from Rabbit Muscle): 50 to 70%; inhibition at 10.32 µM [2]: 70 to 80%; inhibition at 15.5 µM (ADH from Bakers Yeast): 50 to 60%"
"O=C1NC(=O)C(=Cc2ccc(-c3ccc(C(=O)NCCSc4cc(C(=O)O)nc(C(=O)O)c4)cc3)o2)S1 [compound 12a, 4-(2-{4-[5-(2,4-dioxo-thiazolidin-5-ylidenemethyl)-furan-2-yl]-benzoylamino}-ethylsufanyl)-pyridine-2,6-dicarboxylic acid]",~0.536 µM,–
"O=C1NC(=S)SC1=Cc1ccc(-c2ccc(C(=O)NCCSc3cc(C(=O)O)nc(C(=O)O)c3)cc2)o1 [compound 12b, 4-(2-{4-[5-(4-oxo-2-thioxo-thiazolidin-5-ylidenemethyl)-furan-2-yl]-benzoylamino}-ethylsulfanyl)-pyridine-2,6-dicarboxylic acid]",~7.1 µM,–
"O=C1NC(=O)C(=Cc2ccc(-c3cccc(C(=O)NCCSc4cc(C(=O)O)nc(C(=O)O)c4)c3)o2)S1 [compound 12c, 4-(2-{3-[5-(2,4-dioxo-thiazolidin-5-ylidenemethyl)-furan-2-yl]-benzoylamino}-ethylsulfanyl)-pyridine-2,6-dicarboxylic acid]",~13 µM,–
"O=C1NC(=S)SC1=Cc1ccc(-c2cccc(C(=O)NCCSc3cc(C(=O)O)nc(C(=O)O)c3)c2)o1 [compound 12d, 4-(2-{3-[5-(4-oxo-2-thioxo-thiazolidin-5-ylidenemethyl)-furan-2-yl]-benzoylamino}-ethylsulfanyl)-pyridine-2,6-dicarboxylic acid]",~0.254 µM,–
"O=C1NC(=O)C(=Cc2ccc(-c3ccc(O)c(C(=O)NCCSc4cc(C(=O)O)nc(C(=O)O)c4)c3)o2)S1 [compound 12f, 4-(2-{5-[5-(2,4-dioxo-thiazolidin-5-ylidenemethyl)-furan-2-yl]-2-hydroxy-benzoylamino}-ethylsulfanyl)-pyridine-2,6-dicarboxylic acid]",~4.91 µM,–
"N=C1NC(=O)C(=Cc2ccc(O)c(C(=O)NCCSc3cc(C(=O)O)nc(C(=O)O)c3)c2)S1 [compound 16a, 4-{2-[2-hydroxy-5-(2-imino-4-oxo-thiazolidin-5-ylidenemethyl)-benzoylamino]-ethylsulfanyl}-pyridine-2,6-dicarboxylic acid]",~8.2 µM and ~15.5 µM,–
"N=C1NC(=O)C(=Cc2cccc(C(=O)NCCSc3cc(C(=O)O)nc(C(=O)O)c3)c2)S1 [compound 16b, 4-{2-[3-(2-imino-4-oxo-thiazolidin-5-ylidenemethyl)-benzoylamino]-ethylsulfanyl}-pyridine-2,6-dicarboxylic acid]",~1.02 µM,–
"N=C1NC(=O)C(=Cc2ccc(C(=O)NCCSc3cc(C(=O)O)nc(C(=O)O)c3)cc2)S1 [compound 16c, 4-{2-[4-(2-imino-4-oxo-thiazolidin-5-ylidenemethyl)-benzoylamino]-ethylsulfanyl}-pyridine-2,6-dicarboxylic acid]",~33 µM,–
"O=C(NCCSc1cc(C(=O)O)nc(C(=O)O)c1)c1ccc(-c2ccc(-c3nc4cc([N+](=O)[O-])ccc4[nH]3)o2)cc1 [compound 21a, 4-(2-{4-[5-(5-nitro-1H-benzoimidazol-2-yl)-furan-2-yl]-benzoylamino}-ethylsulfanyl)-pyridine-2,6-dicarboxylic acid]",~0.758 µM,–
"CC(=O)NCCSc1cc(C(=O)O)nc(C(=O)O)c1 [compound 22, 4-(2-acetylamino-ethylsulfanyl)-pyridine-2,6-dicarboxylic acid]",–,inhibition at 800 µM (E. coli DHPR enzyme [3]): ~31%
"O=C(NCCSc1cc(C(=O)O)nc(C(=O)O)c1)c1ccccc1 [compound 23, 4-(2-benzoylamino-ethylsulfanyl)-pyridine-2,6-dicarboxylic acid]",78.3 µM,–
"O=C(O)c1cc(SCCNC(=O)c2cc3cccc(O)c3cc2O)cc(C(=O)O)n1 [compound 24, 4-{2-[(3,5-dihydroxy-naphthalene-2-carbonyl)-amino]-ethylsulfanyl}-pyridine-2,6-dicarboxylic acid]",2 µM,–
